According to patent US20150031102A1, “METHODS AND COMPOSITIONS FOR ENHANCED PRODUCTION OF BUTANOL BY CLOSTRIDIA” (Butrolix LLC, priority 2012, published 2015):
Entries after “also recorded” stand apart in the source; their conditions may differ. Marks after values point to notes of the source that are not given here.

Legend:
[1] = tested on: C. acetobutylicum; experiment: Time course study of replicate 250 mL batch cultures (growth, butanol, residual glucose, yield, productivity); assay type: cell-based, Clostridium acetobutylicum; conditions: for Residual glucose / Butanol yield from glucose / Butanol productivity: 50 nM peptide; for Residual glucose: initial glucose 60 g/L, average ± SD of triplicate; for Butanol yield from glucose: starting glucose 60 g/L; for Butanol concentration: Treated, average and standard deviation of triplicate samples
Experimental: Subsequently, time-course studies were conducted using the optimum peptide treatment level that was determined by the sequential batch transfer experiments. Untreated and peptide-treated cultures were grown in triplicate 250 mL batches that were inoculated with […] of the ninth sequential transfer from 24-well culture plates. The 1/1000 ratio of inoculum to culture volume was the same as that used throughout the prior sequential batch transfer experiments, and the replicate time course batch cultures corresponded to the 10th sequential batch transfer. Samples were recovered from the triplicate control and experimental batches a regular time intervals up to 96 hours of culture. Optical density of the replicates was measured and culture supernatants were recovered following centrifugation and analyzed later for butanol and residual glucose concentrations. The analyses were used to calculate yield and productivity of the cultures.
Clostridium acetobutylicum strain ATCC 824 was used in all experiments and the growth medium used for sequential batch transfer, time course, and continuous culture experiments contained yeast extract, casamino acids, L-cysteine, L-asparagine, phosphate buffer, trace minerals, and 6% glucose. What are believed to be quorum-sensing peptides that were used in the experiments were chemically synthesized peptides SEQ ID NO: 143 (amino acid sequence: SYPGWSW) and SEQ ID NO: 144 (amino acid sequence: ILILISG). Routine growth of the bacteria as well as the sequential batch and time course experiments were conducted in a Form a Scientific Model 1029 anaerobic gas chamber at 32° C. Continuous cultures were performed at 32° C. using duplicate New Brunswick Scientific BioFlo 3000 apparati with a dilution rate of 0.01 volume per hour, 75 rpm agitation, and nitrogen gas sparging. Optical density of culture samples was measured at 600 nm in a Beckman DU 600 series spectrophotometer and glucose was analyzed using a YSI Model 2700 Select Biochemistry Analyzer with internal glucose calibration. Butanol concentrations were determined by measuring experimental and standard samples using a Varian Saturn 3 Gas Chromatograph/Mass Spectrometer and calculating butanol concentrations using standard curves.
The study was started by inoculating triplicate 250 mL batches of untreated and peptide-treated medium with 250 μL of the corresponding ninth sequential transfer from 24-well culture plates. Therefore, the replicate time course batch cultures corresponded to the 10th sequential batch transfer. Samples were recovered from the triplicate control and experimental batches at regular time intervals up to 96 hours of culture for measurement of optical density at 600 nm and analysis of butanol and residual glucose concentrations.
Like the previous time course experiment, this study was started by inoculating triplicate 250 mL batches of untreated and peptide-treated medium with 250 μL of the corresponding ninth sequential transfer from 24-well culture plates. As before, samples were recovered from the triplicate control and experimental batches at regular time intervals up to 96 hours of culture for measurement of optical density and analysis of butanol and residual glucose concentrations.

[2] = tested on: C. acetobutylicum; experiment: Calculated optimum peptide treatment level (polynomial curve fitted to butanol concentration vs treatment level per culture transfer); assay type: cell-based, Clostridium acetobutylicum; conditions: for Calculated optimum peptide treatment level: first experiment using BP110517
Excerpt: FIG. 20. Calculation of optimum peptide treatment level for transfer 13 of the first experiment that tested peptide BP110517 (SEQ ID NO:143) (see Table 1 for data). The four butanol concentration data points were graphed against the treatment levels and a polynomial curve was fitted to the graph.
The data from the sequential batch culture experiments treated with peptides BP110517 and BP1106213 were used to calculate optimum peptide treatment levels for enhanced butanol production by C. acetobutylicum. The calculation was made for each culture transfer using the butanol concentration results from control and experimental wells. The four data points for each culture transfer were graphed against the treatment levels, and a polynomial curve was fitted to the graph.
Then, the first derivative of the polynomial fitted to the data for each culture transfer was solved for “x”, which was the maximum point of the fitted polynomial curve (Table 46). The resulting peptide concentration value was assumed to be close to an optimum peptide treatment level that would result in enhanced butanol production.

## SYPGWSW [peptide SEQ ID NO: 143]
[1]; 0 hours
  Residual glucose: 53.7 ± 0.9 g/L
  Butanol yield from glucose: 0.001 g butanol/g glucose
[1]; 6 hours
  Residual glucose: 56.2 ± 0.4 g/L
  Butanol yield from glucose: 0.001 g butanol/g glucose
[1]; 12 hours
  Residual glucose: 56.1 ± 0.7 g/L
  Butanol yield from glucose: 0.001 g butanol/g glucose
[1]; 18 hours
  Residual glucose: 54.7 ± 0.2^c g/L
  Butanol yield from glucose: 0.002 g butanol/g glucose
[1]; 21 hours
  Residual glucose: 52.0 ± 0.3 g/L
  Butanol yield from glucose: 0.002 g butanol/g glucose
[1]; 24 hours
  Residual glucose: 49.7 ± 0.5^c g/L
  Butanol yield from glucose: 0.003 g butanol/g glucose
[1]; 27 hours
  Residual glucose: 46.4 ± 0.4 g/L
  Butanol yield from glucose: 0.007 g butanol/g glucose
[1]; 30 hours
  Residual glucose: 46.6 ± 0.4 g/L
  Butanol yield from glucose: 0.011 g butanol/g glucose
[1]; 33 hours
  Residual glucose: 45.9 ± 0.6 g/L
  Butanol yield from glucose: 0.032 g butanol/g glucose
[1]; 36 hours
  Residual glucose: 46.2 ± 0.5 g/L
  Butanol yield from glucose: 0.032 g butanol/g glucose
[1]; 48 hours
  Residual glucose: 45.7 ± 0.3 g/L
  Butanol yield from glucose: 0.033 g butanol/g glucose
[1]; 72 hours
  Residual glucose: 45.8 ± 0.1 g/L
  Butanol yield from glucose: 0.028 g butanol/g glucose
[1]; 96 hours
  Residual glucose: 45.8 ± 0.2^c g/L
  Butanol yield from glucose: 0.029 g butanol/g glucose
[1]; sampling interval ending at 6 hours
  Butanol productivity: 0.000 g butanol/L-h
[1]; sampling interval ending at 12 hours
  Butanol productivity: 0.000 g butanol/L-h
[1]; sampling interval ending at 18 hours
  Butanol productivity: 0.010 g butanol/L-h
[1]; sampling interval ending at 21 hours
  Butanol productivity: 0.004 g butanol/L-h
[1]; sampling interval ending at 24 hours
  Butanol productivity: 0.024 g butanol/L-h
[1]; sampling interval ending at 27 hours
  Butanol productivity: 0.074 g butanol/L-h
[1]; sampling interval ending at 30 hours
  Butanol productivity: 0.069 g butanol/L-h
[1]; sampling interval ending at 33 hours
  Butanol productivity: 0.377 g butanol/L-h
[1]; sampling interval ending at 36 hours
  Butanol productivity: 0.002 g butanol/L-h
[1]; sampling interval ending at 48 hours
  Butanol productivity: 0.002 g butanol/L-h
[1]; sampling interval ending at 72 hours
  Butanol productivity: −0.011 g butanol/L-h
[1]; sampling interval ending at 96 hours
  Butanol productivity: 0.002 g butanol/L-h
[1]; 50 nM, 33 hours
  Butanol concentration relative to untreated cultures: more than double
  Yield of butanol relative to untreated cultures: more than double
  Butanol concentration: 1.73 ± 0.27^c g/L
[1]; 50 nM, end of the study (96 hours of growth)
  Butanol yield increase compared to untreated culture: 53%
[1]; 50 nM, peak butanol formation stage (between 24 and 33 hours), listed as BP110517
  Butanol productivity relative to untreated cultures: nearly doubled; also recorded: more than doubled
[1]; BP110517, batch cultures (summary of findings)
  Increase in butanol yield: more than 50%
[1]; 50 nM, 0 hours
  Butanol concentration: 0.06 ± 0.00 g/L
[1]; 50 nM, 6 hours
  Butanol concentration: 0.06 ± 0.00 g/L
[1]; 50 nM, 12 hours
  Butanol concentration: 0.06 ± 0.00 g/L
[1]; 50 nM, 18 hours
  Butanol concentration: 0.09 ± 0.00^c g/L
[1]; 50 nM, 21 hours
  Butanol concentration: 0.10 ± 0.00 g/L
[1]; 50 nM, 24 hours
  Butanol concentration: 0.17 ± 0.01^c g/L
[1]; 50 nM, 27 hours
  Butanol concentration: 0.39 ± 0.03^c g/L
[1]; 50 nM, 30 hours
  Butanol concentration: 0.60 ± 0.03^c g/L
[1]; 50 nM, 36 hours
  Butanol concentration: 1.74 ± 0.16 g/L
[1]; 50 nM, 48 hours
  Butanol concentration: 1.76 ± 0.26^c g/L
[1]; 50 nM, 72 hours
  Butanol concentration: 1.48 ± 0.29 g/L
[1]; 50 nM, 96 hours
  Butanol concentration: 1.53 ± 0.29 g/L
[2]; average over culture transfers, Expt. 1
  Calculated Optimum Peptide Level, Average: 48.5 ± 9.9 nM
[2]; average over culture transfers, Expt. 2
  Calculated Optimum Peptide Level, Average: 43.9 ± 31.6 nM
[2]; average over culture transfers, both experiments for BP110517, single non-inhibitory experiment for BP1106213, fairly large standard deviations
  Average optimum peptide treatment level: mid to high 40
[2]; transfer 4
  Calculated optimum peptide treatment level: 38.7 nM
[2]; transfer 22
  Calculated optimum peptide treatment level: 62.9 nM
[2]; transfer 4, Expt. 1
  Calculated Optimum Peptide Level: 38.7 nM
[2]; transfer 7, Expt. 1
  Calculated Optimum Peptide Level: 37.3 nM
[2]; transfer 7, Expt. 2
  Calculated Optimum Peptide Level: 100 nM
[2]; transfer 10, Expt. 1
  Calculated Optimum Peptide Level: 56.6 nM
[2]; transfer 10, Expt. 2
  Calculated Optimum Peptide Level: 35.6 nM
[2]; transfer 13, Expt. 1
  Calculated Optimum Peptide Level: 40.4 nM
[2]; transfer 13, Expt. 2
  Calculated Optimum Peptide Level: 28.6 nM
[2]; transfer 16, Expt. 1
  Calculated Optimum Peptide Level: 51.2 nM
[2]; transfer 16, Expt. 2
  Calculated Optimum Peptide Level: 26.8 nM
[2]; transfer 19, Expt. 1
  Calculated Optimum Peptide Level: 52.5 nM
[2]; transfer 19, Expt. 2
  Calculated Optimum Peptide Level: 28.3 nM
[2]; transfer 22, Expt. 1
  Calculated Optimum Peptide Level: 62.9 nM
